Assay results as given in patent US20130324522A1, “INSECT ODORANT RECEPTOR ANTAGONISTS” (THE ROCKEFELLER UNIVERSITY, priority 2010, published 2013).
pIC50: −log10 of the molar value. Like-named read-outs stand apart in the source and are kept apart here.

Legend:
Assay type in all cases: cell-based
[1] = target: T1, Or47a/Or83b (Drosophila melanogaster, UniProt P81921+Q9VNB5); assay: Ca2+-imaging of stable Flip-In T-Rex cell line Or47a/Or83b; conditions: for pIC50: read-out: IC50 OR47a; for inhibition at 4 µM: read-out: Percent Inhibition OR47a OR83b
T1 construct: Full-length cDNAs for mosquito (Anopheles gambiae) odorant receptor (OR1, OR2, OR7, OR8, OR28), and fly (Drosophila melanogaster) odorant receptor (Or47a, Or83b); expressed in transfected cells
T1 sequence (P81921 1-385): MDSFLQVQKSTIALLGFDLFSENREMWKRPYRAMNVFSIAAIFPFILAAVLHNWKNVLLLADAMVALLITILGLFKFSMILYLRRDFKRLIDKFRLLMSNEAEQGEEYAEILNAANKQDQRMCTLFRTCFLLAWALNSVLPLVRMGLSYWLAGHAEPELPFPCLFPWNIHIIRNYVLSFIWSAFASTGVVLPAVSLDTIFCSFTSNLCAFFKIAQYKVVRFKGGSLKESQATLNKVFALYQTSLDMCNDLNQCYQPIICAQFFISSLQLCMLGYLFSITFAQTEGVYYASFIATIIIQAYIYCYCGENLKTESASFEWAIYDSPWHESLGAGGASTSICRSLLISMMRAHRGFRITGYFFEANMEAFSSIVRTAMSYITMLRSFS
T1 sequence (Q9VNB5 1-486): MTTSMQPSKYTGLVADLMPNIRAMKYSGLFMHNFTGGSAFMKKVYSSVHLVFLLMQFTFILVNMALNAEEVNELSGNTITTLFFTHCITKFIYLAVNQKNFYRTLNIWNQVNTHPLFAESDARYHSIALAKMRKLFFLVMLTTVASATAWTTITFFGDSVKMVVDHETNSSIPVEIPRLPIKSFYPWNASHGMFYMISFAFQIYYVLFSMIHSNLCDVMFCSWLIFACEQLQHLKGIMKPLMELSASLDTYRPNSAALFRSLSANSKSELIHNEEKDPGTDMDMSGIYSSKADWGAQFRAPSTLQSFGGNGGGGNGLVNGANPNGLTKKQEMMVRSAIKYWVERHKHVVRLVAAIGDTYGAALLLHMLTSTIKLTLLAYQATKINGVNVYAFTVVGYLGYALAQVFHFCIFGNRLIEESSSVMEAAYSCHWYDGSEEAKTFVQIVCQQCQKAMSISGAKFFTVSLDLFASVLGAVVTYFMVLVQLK
Procedure, shortened: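 Calcium responses were read on an FDSS6000 (485 nm excitation, 525 nm emission) after Ca-4 loading for 1.5 h at room temperature. Cells were tetracycline-induced Flp-In T-REx lines stably carrying fly Or47a/Or83b or mouse 5HT3, plated 2 days ahead; compounds were co-delivered in HBSS odorant solution.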

[2] = target: OR10/OR7 (Anopheles gambiae, UniProt B5U0U7+Q7QCC7); assay: Ca2+-imaging of stable HEK293T cell line OR10/OR7; conditions: for inhibition at 4 µM: HEK-293T, compound applied at 4 μM, read-out: Percent Inhibition OR10 OR7; for pIC50: Table B, read-out: IC50 OR10
Sequence of OR10/OR7 (Q7QCC7 whole entry): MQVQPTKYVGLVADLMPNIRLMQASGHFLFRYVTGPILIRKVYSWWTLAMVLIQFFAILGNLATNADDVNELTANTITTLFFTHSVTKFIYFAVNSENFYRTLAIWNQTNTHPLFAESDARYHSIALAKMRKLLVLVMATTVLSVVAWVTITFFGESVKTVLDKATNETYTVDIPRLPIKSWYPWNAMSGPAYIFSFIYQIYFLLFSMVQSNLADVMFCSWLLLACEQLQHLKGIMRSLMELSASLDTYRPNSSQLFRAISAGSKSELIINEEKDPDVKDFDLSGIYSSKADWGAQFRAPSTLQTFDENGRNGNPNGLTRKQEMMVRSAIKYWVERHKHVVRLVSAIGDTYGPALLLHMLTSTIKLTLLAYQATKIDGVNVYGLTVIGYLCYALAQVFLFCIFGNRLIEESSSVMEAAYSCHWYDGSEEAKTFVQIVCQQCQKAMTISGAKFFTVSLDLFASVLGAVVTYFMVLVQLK
Sequence of OR10/OR7 (B5U0U7 entry or part of it): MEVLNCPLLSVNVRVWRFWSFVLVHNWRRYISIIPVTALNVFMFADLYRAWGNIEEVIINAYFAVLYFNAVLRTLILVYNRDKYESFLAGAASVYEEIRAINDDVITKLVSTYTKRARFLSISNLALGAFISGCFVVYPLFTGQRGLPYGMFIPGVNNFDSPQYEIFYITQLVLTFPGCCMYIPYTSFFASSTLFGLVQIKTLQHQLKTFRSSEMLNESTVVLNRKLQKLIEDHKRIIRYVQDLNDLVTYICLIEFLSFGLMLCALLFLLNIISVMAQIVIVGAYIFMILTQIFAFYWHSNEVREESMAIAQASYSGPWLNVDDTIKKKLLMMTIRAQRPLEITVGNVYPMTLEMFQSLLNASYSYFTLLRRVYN
Procedure, shortened: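 Stable HEK293T line co-expressing OR10/OR7, plated 2 days on poly-D-lysine, loaded with Ca-4 dye 1.5 hr at room temperature. Compounds premixed into odorant in HBSS and applied on FDSS6000. Ca2+ rise followed by fluorescence at 525 nm (excitation 485 nm).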

[3] = target: OR8/OR7 (Anopheles gambiae, UniProt Q7PUT5+Q7QCC7); assay: Ca2+-imaging of stable HEK293T cell line OR8/OR7; conditions: for inhibition at 4 µM: HEK-293T, compound applied at 4 μM, read-out: Percent Inhibition OR8 OR7; for pIC50: Table B, read-out: IC50 OR8
Sequence of OR8/OR7 (Q7QCC7 whole entry): as the sequence (Q7QCC7 whole entry) above
Sequence of OR8/OR7 (Q7PUT5 entry or part of it): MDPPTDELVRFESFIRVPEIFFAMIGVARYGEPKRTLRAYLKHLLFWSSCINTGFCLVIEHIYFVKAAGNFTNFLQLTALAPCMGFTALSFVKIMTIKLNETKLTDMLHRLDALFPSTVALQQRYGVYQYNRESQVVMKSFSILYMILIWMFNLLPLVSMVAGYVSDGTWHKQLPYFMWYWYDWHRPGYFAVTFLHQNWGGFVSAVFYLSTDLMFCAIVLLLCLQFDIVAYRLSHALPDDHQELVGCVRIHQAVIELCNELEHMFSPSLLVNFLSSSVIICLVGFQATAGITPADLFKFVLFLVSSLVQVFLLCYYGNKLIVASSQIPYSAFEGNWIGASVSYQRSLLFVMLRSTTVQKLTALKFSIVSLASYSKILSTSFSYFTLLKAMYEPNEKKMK
Procedure, shortened: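 Odorant solutions were prepared in HBSS at 9× final, with test compounds transferred in from […] DMSO stocks. These mixtures were applied to dye-loaded HEK293T stable receptor lines, and calcium responses were recorded in real time.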

## Cc1cc(C)c2c(c1C(=O)N1CCC3(CC1)C(=O)NCN3c1ccccc1)CC(C)(C)C2=O [RU-0025771]
[1]
  pIC50: < 6.00
  inhibition at 4 µM: > 75%
[2]
  inhibition at 4 µM: 26 to 50%

## C=C[C@@](C)(O)CCC1C(=C)CCC2[C@@](C)(CO)CCC[C@]12C (stereo partly drawn) [RU-0001327]
[1]; compound applied at 4 μM
  inhibition at 4 µM: < 25%
[3]
  inhibition at 4 µM: 26 to 50%
[2]
  inhibition at 4 µM: 51 to 74%
  pIC50: < 6.00

## COc1cc(OC)cc(C2NC(=O)N(C)C3=C2C(=O)N(C2CCCCC2)C3)c1 (stereo not drawn) [RU-0047750]
[1]; compound applied at 4 μM
  inhibition at 4 µM: 26 to 50%
[3]
  inhibition at 4 µM: < 25%
[2]
  inhibition at 4 µM: > 75%
  pIC50: > 7.00

## Cc1ccc(CN(Cc2ccc(F)cc2)C(=O)CN(C(=O)NC(C)(C)C)C2CC2)s1 [RU-0052360]
[1]; compound applied at 4 μM
  inhibition at 4 µM: 26 to 50%
[3]
  inhibition at 4 µM: 51 to 74%
  pIC50: < 6.00
[2]
  inhibition at 4 µM: > 75%
  pIC50: < 6.00

## COc1ccccc1N1CCN(C(=O)c2cc3n(n2)CCN(Cc2c(F)cccc2Cl)C3=O)CC1 [RU-0043595]
[1]; Table B
  pIC50: < 6.00
[1]; compound applied at 4 μM
  inhibition at 4 µM: 51 to 74%
[3]
  inhibition at 4 µM: 26 to 50%
[2]
  inhibition at 4 µM: < 25%

## Cc1ccc(-n2nc(C)c(CCC(=O)N3CCc4ccccc4C3)c2C)cc1Cl [RU-0026074]
[1]; Table B
  pIC50: < 6.00
[1]; compound applied at 4 μM
  inhibition at 4 µM: 51 to 74%
[2]
  inhibition at 4 µM: 26 to 50%

## COc1ccc(N2CCN(C(=O)C3CC=CCC3C(=O)NC(c3ccccc3)c3ccccn3)CC2)cc1 (stereo not drawn) [RU-0026507]
[1]; compound applied at 4 μM
  inhibition at 4 µM: 26 to 50%
[3]
  inhibition at 4 µM: < 25%
[2]
  inhibition at 4 µM: < 25%

## COCCNC(=O)c1ccc(CSc2nnc(-c3ccc(C)cc3)n2-c2ccccc2F)cc1 [RU-0051652]
[1]; compound applied at 4 μM
  inhibition at 4 µM: < 25%
[3]
  inhibition at 4 µM: < 25%
[2]
  inhibition at 4 µM: 26 to 50%

## COc1ccc(C(=O)c2ccccc2)c(O)c1O [RU-0001617]
[1]; Table B
  pIC50: < 6.00
[1]; compound applied at 4 μM
  inhibition at 4 µM: 51 to 74%
[3]
  inhibition at 4 µM: < 25%
[2]
  inhibition at 4 µM: 51 to 74%
  pIC50: > 7.00

## COc1nc(OCC#N)nc(N2CCCCC2)n1 [RU-0006256]
[1]; Table B
  pIC50: < 6.00
[1]; compound applied at 4 μM
  inhibition at 4 µM: 51 to 74%
[3]
  inhibition at 4 µM: 51 to 74%
  pIC50: < 6.00
[2]
  inhibition at 4 µM: 51 to 74%
  pIC50: < 6.00

## CCOC(=O)C(c1cccc(OC)c1)C1C=CC(NC(=O)c2cccs2)C1 (stereo not drawn) [RU-0074560]
[1]; compound applied at 4 μM
  inhibition at 4 µM: 26 to 50%
[3]
  inhibition at 4 µM: < 25%
[2]
  inhibition at 4 µM: < 25%

## CN(C)c1nc(N(C)C)nc(N(C)C)n1 [RU-0000619]
[1]; Table B
  pIC50: < 6.00
[1]; compound applied at 4 μM
  inhibition at 4 µM: 51 to 74%
[3]
  inhibition at 4 µM: 26 to 50%
[2]
  inhibition at 4 µM: < 25%

## COCCCN(CC(=O)N1CCc2sccc2C1COc1cccc(OC)c1)C(=O)Cc1ccccc1 (stereo not drawn) [RU-0036264]
[1]; compound applied at 4 μM
  inhibition at 4 µM: < 25%
[3]
  inhibition at 4 µM: 26 to 50%
[2]
  inhibition at 4 µM: < 25%

## COc1ccc(N2CCN(C(=O)C3CC=CCC3C(=O)NCCCCc3ccccc3)CC2)cc1 (stereo not drawn) [RU-0026167]
[1]; Table B
  pIC50: < 6.00
[1]; compound applied at 4 μM
  inhibition at 4 µM: 51 to 74%
[3]
  inhibition at 4 µM: 26 to 50%
[2]
  inhibition at 4 µM: 26 to 50%

## CC(NCc1ccccc1)c1nc2ccccc2c(=O)n1-c1ccc(Cl)cc1 (stereo not drawn) [RU-0072535]
[1]; compound applied at 4 μM
  inhibition at 4 µM: 26 to 50%
[3]
  inhibition at 4 µM: < 25%
[2]
  inhibition at 4 µM: < 25%
